System: 317291-083-R-J1-PDC complex spheroid growth
Test: Anticancer human tumor 317291-083-R-J1-PDC patient-derived soft tissue sarcoma cell line growth inhibition [Asc]
Conditions: for IC50: curve of first compound; for viability, T/C: stronger effect = lower value
In short: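 Tumor cells were grown as complex spheroids with human endothelial cells (HUVEC) and human mesenchymal stem cells as stroma. Agents were tested alone and in combination, in half-log steps down from the clinical Cmax, or from 10 microM where Cmax was unknown.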

[1] = second compound 0.00949 µM, first compound 0.0316 µM
[2] = second compound 0.00949 µM, first compound 0.1 µM
[3] = second compound 0.00949 µM, first compound 0.316 µM
[4] = second compound 0.00949 µM, first compound 1 µM
[5] = second compound 0.00949 µM, first compound 3.16 µM
[6] = second compound 0.00949 µM, first compound 10 µM
[7] = second compound 0.03 µM, first compound 0.0316 µM
[8] = second compound 0.03 µM, first compound 0.1 µM
[9] = second compound 0.03 µM, first compound 0.316 µM
[10] = second compound 0.03 µM, first compound 1 µM
[11] = second compound 0.03 µM, first compound 3.16 µM
[12] = second compound 0.03 µM, first compound 10 µM
[13] = second compound 0.0949 µM, first compound 0.0316 µM
[14] = second compound 0.0949 µM, first compound 0.1 µM
[15] = second compound 0.0949 µM, first compound 0.316 µM
[16] = second compound 0.0949 µM, first compound 1 µM
[17] = second compound 0.0949 µM, first compound 3.16 µM
[18] = second compound 0.0949 µM, first compound 10 µM
[19] = second compound 0.3 µM, first compound 0.0316 µM
[20] = second compound 0.3 µM, first compound 0.1 µM
[21] = second compound 0.3 µM, first compound 0.316 µM
[22] = second compound 0.3 µM, first compound 1 µM
[23] = second compound 0.3 µM, first compound 3.16 µM
[24] = second compound 0.3 µM, first compound 10 µM
[25] = second compound 0.949 µM, first compound 0.0316 µM
[26] = second compound 0.949 µM, first compound 0.1 µM
[27] = second compound 0.949 µM, first compound 0.316 µM
[28] = second compound 0.949 µM, first compound 1 µM
[29] = second compound 0.949 µM, first compound 3.16 µM
[30] = second compound 0.949 µM, first compound 10 µM
[31] = second compound 3 µM, first compound 0.0316 µM
[32] = second compound 3 µM, first compound 0.1 µM
[33] = second compound 3 µM, first compound 0.316 µM
[34] = second compound 3 µM, first compound 1 µM
[35] = second compound 3 µM, first compound 3.16 µM
[36] = second compound 3 µM, first compound 10 µM
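Also: compound exposure lasted seven days after spheroids formed for three days.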
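For viability, T/C in this document: 100% = DMSO vehicle control wells.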

## C=C(F)C(=O)N1CCN(c2nc(OCC3CCCN3C)nc3c2CCN(c2cccc4cccc(Cl)c24)C3)CC1CC#N (stereo unspecified) + CCN1C(C(=O)NC23CCC(C(=O)O)(CC2)CC3)C(c2cccc(Cl)c2F)C2(C(=O)Nc3cc(Cl)ccc32)C12CCCCC2
Second compound 0.00949 µM
  IC50: 2510 nM
Second compound 0.03 µM
  IC50: 2830 nM
Second compound 0.0949 µM
  IC50: 3940 nM
Second compound 0.3 µM
  IC50: 1980 nM
Second compound 0.949 µM
  IC50: 2430 nM
Second compound 3 µM
  IC50: 2110 nM
[1]
  viability, T/C: 105%
[2]
  viability, T/C: 101%
[3]
  viability, T/C: 90.2%
[4]
  viability, T/C: 93.2%
[5]
  viability, T/C: 39.3%
[6]
  viability, T/C: 0.31%
[7]
  viability, T/C: 92.7%
[8]
  viability, T/C: 91.8%
[9]
  viability, T/C: 99.3%
[10]
  viability, T/C: 95.2%
[11]
  viability, T/C: 45.1%
[12]
  viability, T/C: 0.14%
[13]
  viability, T/C: 106%
[14]
  viability, T/C: 89%
[15]
  viability, T/C: 122%
[16]
  viability, T/C: 98.7%
[17]
  viability, T/C: 61.9%
[18]
  viability, T/C: 0.14%
[19]
  viability, T/C: 106%
[20]
  viability, T/C: 92.4%
[21]
  viability, T/C: 92.7%
[22]
  viability, T/C: 86.8%
[23]
  viability, T/C: 24.8%
[24]
  viability, T/C: 0.21%
[25]
  viability, T/C: 104%
[26]
  viability, T/C: 93%
[27]
  viability, T/C: 91.9%
[28]
  viability, T/C: 98%
[29]
  viability, T/C: 36.1%
[30]
  viability, T/C: 0.19%
[31]
  viability, T/C: 78.2%
[32]
  viability, T/C: 91.9%
[33]
  viability, T/C: 85.5%
[34]
  viability, T/C: 64.5%
[35]
  viability, T/C: 41.4%
[36]
  viability, T/C: 1.13%

## C=CC(=O)N1CCN(c2nc(=O)n(-c3c(C)ccnc3C(C)C)c3nc(-c4c(O)cccc4F)c(F)cc23)C(C)C1 (stereo unspecified) + CCN1C(C(=O)NC23CCC(C(=O)O)(CC2)CC3)C(c2cccc(Cl)c2F)C2(C(=O)Nc3cc(Cl)ccc32)C12CCCCC2
Second compound 0.00949 µM
  IC50: > 10000 nM
Second compound 0.03 µM
  IC50: > 10000 nM
Second compound 0.0949 µM
  IC50: > 10000 nM
Second compound 0.3 µM
  IC50: > 10000 nM
Second compound 0.949 µM
  IC50: > 10000 nM
Second compound 3 µM
  IC50: 8770 nM
[1]
  viability, T/C: 94.8%
[2]
  viability, T/C: 79.8%
[3]
  viability, T/C: 85.8%
[4]
  viability, T/C: 92.5%
[5]
  viability, T/C: 77.6%
[6]
  viability, T/C: 71.8%
[7]
  viability, T/C: 90.1%
[8]
  viability, T/C: 80.2%
[9]
  viability, T/C: 93.2%
[10]
  viability, T/C: 89.3%
[11]
  viability, T/C: 84.8%
[12]
  viability, T/C: 71.2%
[13]
  viability, T/C: 101%
[14]
  viability, T/C: 93.3%
[15]
  viability, T/C: 98.6%
[16]
  viability, T/C: 94.7%
[17]
  viability, T/C: 84%
[18]
  viability, T/C: 71.4%
[19]
  viability, T/C: 99.7%
[20]
  viability, T/C: 81.2%
[21]
  viability, T/C: 94.1%
[22]
  viability, T/C: 93.3%
[23]
  viability, T/C: 111%
[24]
  viability, T/C: 69.2%
[25]
  viability, T/C: 85.2%
[26]
  viability, T/C: 84.7%
[27]
  viability, T/C: 89.2%
[28]
  viability, T/C: 77.7%
[29]
  viability, T/C: 83.3%
[30]
  viability, T/C: 67%
[31]
  viability, T/C: 68.6%
[32]
  viability, T/C: 72.6%
[33]
  viability, T/C: 72.4%
[34]
  viability, T/C: 98.5%
[35]
  viability, T/C: 82.3%
[36]
  viability, T/C: 46.3%

## COc1c(OCCCN2CCOCC2)ccc2c3n(c(=NC(=O)c4cnc(N)nc4)nc12)CCN3 + CCN1C(C(=O)NC23CCC(C(=O)O)(CC2)CC3)C(c2cccc(Cl)c2F)C2(C(=O)Nc3cc(Cl)ccc32)C12CCCCC2
Second compound 0.00949 µM
  IC50: 177 nM
Second compound 0.03 µM
  IC50: 182 nM
Second compound 0.0949 µM
  IC50: 213 nM
Second compound 0.3 µM
  IC50: 173 nM
Second compound 0.949 µM
  IC50: 180 nM
Second compound 3 µM
  IC50: 127 nM
Second compound 0.00949 µM, first compound 0.00316 µM
  viability, T/C: 95.6%
Second compound 0.00949 µM, first compound 0.01 µM
  viability, T/C: 85.8%
[1]
  viability, T/C: 85%
[2]
  viability, T/C: 64.9%
[3]
  viability, T/C: 34.6%
[4]
  viability, T/C: 16.3%
Second compound 0.03 µM, first compound 0.00316 µM
  viability, T/C: 95.6%
Second compound 0.03 µM, first compound 0.01 µM
  viability, T/C: 79.2%
[7]
  viability, T/C: 79.5%
[8]
  viability, T/C: 56.2%
[9]
  viability, T/C: 43.8%
[10]
  viability, T/C: 13.9%
Second compound 0.0949 µM, first compound 0.00316 µM
  viability, T/C: 93.7%
Second compound 0.0949 µM, first compound 0.01 µM
  viability, T/C: 83.4%
[13]
  viability, T/C: 81.3%
[14]
  viability, T/C: 79.4%
[15]
  viability, T/C: 34.8%
[16]
  viability, T/C: 16.9%
Second compound 0.3 µM, first compound 0.00316 µM
  viability, T/C: 120%
Second compound 0.3 µM, first compound 0.01 µM
  viability, T/C: 76.9%
[19]
  viability, T/C: 84.7%
[20]
  viability, T/C: 67%
[21]
  viability, T/C: 37.1%
[22]
  viability, T/C: 17.4%
Second compound 0.949 µM, first compound 0.00316 µM
  viability, T/C: 85.1%
Second compound 0.949 µM, first compound 0.01 µM
  viability, T/C: 74%
[25]
  viability, T/C: 86.8%
[26]
  viability, T/C: 58.5%
[27]
  viability, T/C: 39.2%
[28]
  viability, T/C: 15.4%
Second compound 3 µM, first compound 0.00316 µM
  viability, T/C: 88.2%
Second compound 3 µM, first compound 0.01 µM
  viability, T/C: 71%
[31]
  viability, T/C: 73.3%
[32]
  viability, T/C: 55%
[33]
  viability, T/C: 32.8%
[34]
  viability, T/C: 15.2%

Source: PubChem BioAssay AID1963427 (Molecular Pharmacology Branch, DTP, NCI, 2024)
